Measurements as given in patent publication US7262297B2, “Diaminopyrroloquinazolines compounds as protein tyrosine phosphatase inhibitors” (Hoffmann-La Roche Inc., priority 2003, dated 2007).

Target: T1, Human PTP1B (1-321) (Homo sapiens, UniProt P18031)
T1 construct: Human PTP1B (1-321) was cloned from a human cDNA library; made in house; host or cells: E. coli
T1 sequence (P18031 1-321): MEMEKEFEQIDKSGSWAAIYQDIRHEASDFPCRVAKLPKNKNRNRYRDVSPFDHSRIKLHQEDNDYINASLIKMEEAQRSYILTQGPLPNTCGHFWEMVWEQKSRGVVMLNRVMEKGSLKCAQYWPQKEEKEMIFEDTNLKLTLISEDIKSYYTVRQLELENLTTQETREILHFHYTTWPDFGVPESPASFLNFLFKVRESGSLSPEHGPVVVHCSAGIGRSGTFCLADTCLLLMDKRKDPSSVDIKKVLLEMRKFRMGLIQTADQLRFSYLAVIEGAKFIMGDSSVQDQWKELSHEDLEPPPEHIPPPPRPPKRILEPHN
Assay: In vitro inhibition of PTP1B (PTPase assay, Malachite Green / DiFMUP)
Type: biochemical
Conditions: read-out: IC50 (μM), PTP1B inhibitory activity
Protocol: Human PTP1B (1-321) was cloned from a human cDNA library using conventional molecular biology techniques. The cDNA sequence was identical to the published human PTP1B sequence (Accession number M33689). The protein was expressed and purified from E. coli as described by Barford D. et.al, J. Mol Biol (1994) 239,726-730).
The measurement of PTPase activity was carried out using one of two methods:
The first method for the measurement of PTP1B inhibitory activity a tyrosine phosphorylated peptide based on the amino acid sequence of insulin receptor tyrosine autophosphorylation site 1146 (TRDI(pY)E) was used as substrate. The reaction conditions were as follows:
PTP1B (0.5-2nM ) was incubated with compound for 15 min in buffer containing 37.5 mM Bis-Tris buffer pH 6.2, 140 mMNaCl, 0.05% BSA and 2 mM DTT. The reaction was started by the addition of 50 μM substrate. After 20 min at room temperature (22-25° C.) the reaction was stopped with KOH and the amount of free phosphate measured using Malachite Green as previously described. (Harder et al. 1994 Biochem J. 298; 395).
The second method was used for the measurement of general PTPase inhibitory activity across a panel of PTPases the substrate (6,8-difluoro-4-methylumbelliferyl phosphate (DiFMUP; from Molecular Probes) was used at the Km for each enzyme. The buffer conditions were identical as in the Malachite Green assay. The reaction was stopped with KOH. In this case the dephosphoryated product becomes fluorescent and the fluorescence read. (Excitiation: […]/Emmission: 460 nM).

| SMILES | IC50 [µM] |
| --- | --- |
| Nc1nc(N)c2c(cc(-c3cccc([N+](=O)[O-])c3)c3[nH]ccc32)n1 [Example 4, 6-(3-Nitro-phenyl)-7H-pyrrolo[3,2-f]quinazoline-1,3-diamine] | 89.5 |
| Nc1nc(N)c2c(cc(-c3ccc(Cl)s3)c3[nH]ccc32)n1 [Example 6, 6-(5-Chloro-thiophen-2-yl)-7H-pyrrolo[3,2-f]quinazoline-1,3-diamine] | 29.2 |
| CCOc1cccc(-c2cc3nc(N)nc(N)c3c3cc[nH]c23)c1 [Example 2, 6-(3-Ethoxy-phenyl)-7H-pyrrolo[3,2-f]quinazoline-1,3-diamine] | 23.8 |
| Nc1cccc(-c2cc3nc(N)nc(N)c3c3cc[nH]c23)c1 [Example 8, 6-(3-Amino-phenyl)-7H-pyrrolo[3,2-f]quinazoline-1,3-diamine] | 24.1 |
